The text below walks through data of patent publication US9695132B2, “Heteroaryl compounds and uses thereof” (Celgene CAR LLC, priority 2013, dated 2017).

The target of the first assay is FGFR4-WT (Homo sapiens (Human), UniProt P22455). Description: Omnia assay for potency assessment against FGFR4 enzyme. In kind it is biochemical.
FGFR4-WT, sequence (P22455 22-802): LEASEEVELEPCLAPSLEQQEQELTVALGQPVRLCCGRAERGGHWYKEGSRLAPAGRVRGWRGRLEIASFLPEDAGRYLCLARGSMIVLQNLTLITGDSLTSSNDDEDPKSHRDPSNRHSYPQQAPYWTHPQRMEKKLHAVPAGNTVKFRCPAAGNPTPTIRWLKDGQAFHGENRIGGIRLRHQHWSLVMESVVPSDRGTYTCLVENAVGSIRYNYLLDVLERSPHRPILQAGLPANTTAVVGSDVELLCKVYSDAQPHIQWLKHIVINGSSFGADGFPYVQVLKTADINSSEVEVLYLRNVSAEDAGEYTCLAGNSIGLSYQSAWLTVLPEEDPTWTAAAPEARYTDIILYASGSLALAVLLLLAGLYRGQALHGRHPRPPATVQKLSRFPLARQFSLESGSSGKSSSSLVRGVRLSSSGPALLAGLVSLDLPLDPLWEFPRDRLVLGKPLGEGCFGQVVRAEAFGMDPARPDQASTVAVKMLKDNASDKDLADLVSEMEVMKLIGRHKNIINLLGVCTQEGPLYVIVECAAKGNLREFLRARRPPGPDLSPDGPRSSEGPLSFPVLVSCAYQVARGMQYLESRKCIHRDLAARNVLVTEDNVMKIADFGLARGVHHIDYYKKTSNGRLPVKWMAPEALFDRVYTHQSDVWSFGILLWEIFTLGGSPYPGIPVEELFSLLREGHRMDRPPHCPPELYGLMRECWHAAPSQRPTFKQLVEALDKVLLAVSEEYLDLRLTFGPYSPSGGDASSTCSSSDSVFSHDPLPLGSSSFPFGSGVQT
Conditions: not given
How it is done:
A 10× stock solution of FGFR4-WT (PR4380C), (from Invitrogen, Carlsbad, Calif.) corresponding to method a in Table 7, was prepared as described below. Alternatively, a 10× stock solution of FGFR4-WT (F01-11G), (SignalChem, Richmond, BC) corresponding to method b in Table 7, was prepared as described below. A solution of 1.4×ATP (AS001A) and 5× Tyr-Sox conjugated peptide substrate (KNZ3101) were prepared in 1× kinase reaction buffer consisting of 20 mM Tris, pH 7.5, 5 mM MgCl2, 1 mM EGTA, 5 mM β-glycerophosphate, 5% glycerol (10× stock, KB002A) and 0.2 mM DTT (DS001A). […] The serially diluted compounds were prepared on a Tecan EVO100. A second addition of 10 μl of Tyr-Sox FGFR4 substrate was added to each well and the kinase reactions were started with the addition of 35 μL of 1.4×ATP. The reactions were monitored every 71 seconds for 240 minutes at λex360/λem485 in a Synergy plate reader from BioTek (Winooski, Vt.).
Consider `C=CC(=O)N[C@H]1CCCC[C@H]1Nc1ncc2c(n1)N(Cc1ccccc1)C(=O)N(c1c(Cl)c(OC)cc(OC)c1Cl)C2` [Compound I-82], for which the IC50 was less than 100 nM.

Still in this assay, the particulars now being: method a: [FGFR4-WT]=10 nM (Invitrogen), [ATP]=300 uM, [Y10-Sox]=10 uM.
For the compound `C=CC(=O)Nc1ccccc1Nc1ncc2c(n1)N(C)C(=O)N(c1ccccc1)C2` [Compound I-38], the IC50 was 501 to 999 nM. Turning to `C=CC(=O)Nc1cc(C2CCN(CC)CC2)ccc1Nc1ncc2c(n1)N(C)C(=O)N(c1cc(OC)cc(OC)c1)C2` [Compound I-54], the IC50 was less than 100 nM. On the same count and under the same terms, the same measure for `C=CC(=O)Nc1ccc(C)cc1Nc1ncc2c(n1)N(C)C(=O)N(c1cc(OC)cc(OC)c1)C2` [Compound I-49]: less than 100 nM. In the case of `C=CC(=O)Nc1cc(-c2cnn(C)c2)ccc1Nc1ncc2c(n1)N(C)C(=O)N(c1cc(OC)cc(OC)c1)C2` [Compound I-77], the IC50 was less than 100 nM. Still for that read-out and setting: as for `C=CC(=O)Nc1ccccc1Nc1ncc2c(n1)N(CC)C(=O)N(CC)C2` [Compound I-120], the figure is more than 1000 nM; as for `C=CC(=O)Nc1ccc(-c2cnn(C)c2)cc1Nc1ncc2c(n1)N(C)C(=O)N(c1cc(OC)cc(OC)c1)C2` [Compound I-27], less than 100 nM; as for `C=CC(=O)Nc1ccccc1Nc1ncc2c(n1)N(C1CC1)C(=O)N(c1cc(OC)cc(OC)c1)C2` [Compound I-34], less than 100 nM. Take `C=CC(=O)Nc1ccccc1Nc1ncc2c(n1)N(C)C(=O)N(c1cc(OC)cc(OC)c1Cl)C2` [Compound I-75]: the IC50 was less than 100 nM. Still for that read-out and setting: as for `C=CC(=O)Nc1ccccc1Nc1ncc2c(n1)N(C)C(=O)N(C1CCCCC1)C2` [Compound I-52], the figure is 501 to 999 nM; as for `C=CC(=O)Nc1ccccc1Nc1ncc2c(n1)N(CC1CCN(C(=O)OC(C)(C)C)CC1)C(=O)N(c1cc(OC)cc(OC)c1)C2` [Compound I-60], less than 100 nM. With `C=CC(=O)N(C)c1ccccc1Nc1ncc2c(n1)N(Cc1ccccc1)C(=O)N(c1c(Cl)c(OC)cc(OC)c1Cl)C2` [Compound I-37], the IC50 is 101 to 500 nM. On to `C=CC(=O)Nc1ccccc1Nc1ncc2c(n1)N(Cc1ccn(C)n1)C(=O)N(c1c(Cl)c(OC)cc(OC)c1Cl)C2` [Compound I-136], for which the IC50 is less than 100 nM. With `C=CC(=O)NC1CCCCC1Nc1ncc2c(n1)N(CC1CC1)C(=O)N(c1cc(OC)cc(OC)c1Cl)C2` (centres unmarked) [Compound I-101], the half-inhibitory concentration (IC50) fell in the range of 101 to 500 nM.

With `C=CC(=O)Nc1cc(CN2CCN(CC)CC2)ccc1Nc1ncc2c(n1)N(C)C(=O)N(c1cc(OC)cc(OC)c1)C2` [Compound I-122], the IC50 was in the range of 101 to 500 nM. `C=CC(=O)Nc1ccccc1Nc1ncc2c(n1)N(Cc1ccnc(N)c1)C(=O)N(c1c(Cl)c(OC)cc(OC)c1Cl)C2` [Compound I-135]: the IC50 was less than 100 nM. For `C=C(C)C(=O)Nc1ccccc1Nc1ncc2c(n1)N(C)C(=O)N(c1c(Cl)c(OC)cc(OC)c1Cl)C2` [Compound I-142], the IC50 was less than 100 nM. On to `C=CC(=O)NC1CN(c2ccccn2)CC1Nc1ncc2c(n1)N(C)C(=O)N(c1c(Cl)c(OC)cc(OC)c1Cl)C2` (centres unmarked) [Compound I-202], for which the IC50 was less than 100 nM. For the compound `C=CC(=O)Nc1cc(-c2nnn(C)n2)ccc1Nc1ncc2c(n1)N(C)C(=O)N(c1c(Cl)c(OC)cc(OC)c1Cl)C2` [Compound I-145], the IC50 is less than 100 nM. On to `C=CCN1C(=O)N(c2cc(OC)cc(OC)c2)Cc2cnc(Nc3ccccc3NC(=O)C=C)nc21` [Compound I-32], for which the IC50 is less than 100 nM.

With `C=CC(=O)Nc1ccccc1Nc1ncc2c(n1)N(CC1CC1)C(=O)N(c1c(Cl)c(OC)cc(OC)c1Cl)C2` [Compound I-130], the IC50 was less than 100 nM. As to `C=CC(=O)Nc1ccc(-c2cnn(C)c2)cc1Nc1ncc2c(n1)N(C)C(=O)N(c1c(Cl)c(OC)cc(OC)c1Cl)C2` [Compound I-74], the IC50 is less than 100 nM. For the compound `C=CC(=O)Nc1ccccc1Nc1ncc2c(n1)N(CC1CC1)C(=O)N(c1cc(OC)cc(OC)c1F)C2` [Compound I-109], the half-inhibitory concentration (IC50) is less than 100 nM. `C=CC(=O)NC1CCCCC1Nc1ncc2c(n1)NC(=O)N(c1c(Cl)c(OC)cc(OC)c1Cl)C2` (racemic) [Compound I-73]: the concentration for half-maximal inhibition (IC50) lay in the range of 101 to 500 nM. As for `COc1cc(OC)cc(N2Cc3cnc(Nc4ccccc4)nc3N(C)C2=O)c1` [Compound I-237], the IC50 was in the range of 101 to 500 nM. With `C=CC(=O)N[C@@H]1CCCC[C@@H]1Nc1ncc2c(n1)N(Cc1ccccc1)C(=O)N(c1c(Cl)c(OC)cc(OC)c1Cl)C2` [Compound I-66], the IC50 was more than 1000 nM. Consider `C=CC(=O)Nc1ccccc1Nc1ncc2c(n1)N(Cc1cccc(C#N)c1)C(=O)N(c1cc(OC)cc(OC)c1)C2` [Compound I-90], for which the IC50 was less than 100 nM. Turning to `C=CC(=O)Nc1ccc(N2CCN(CC)CC2)cc1Nc1ncc2c(n1)N(C)C(=O)N(c1cc(OC)cc(OC)c1)C2` [Compound I-30], the IC50 is less than 100 nM. With `C=CC(=O)Nc1ccccc1Nc1ncc2c(n1)N(Cc1csc(C)n1)C(=O)N(c1c(Cl)c(OC)cc(OC)c1Cl)C2` [Compound I-134], the concentration for half-maximal inhibition (IC50) was less than 100 nM. Same read-out and setting: the same measure for `C=CC(=O)N[C@H]1CCCC[C@H]1Nc1ncc2c(n1)N(C)C(=O)N(c1ccc(OC)cc1)C2` [Compound I-222]: more than 1000 nM.

Turning to `C=CC(=O)Nc1ccccc1Nc1ncc2c(n1)N(Cc1nccs1)C(=O)N(c1c(Cl)c(OC)cc(OC)c1Cl)C2` [Compound I-91], the IC50 was less than 100 nM.

For `C=CC(=O)Nc1cc(-c2nccs2)ccc1Nc1ncc2c(n1)N(C)C(=O)N(c1cc(OC)cc(OC)c1)C2` [Compound I-84], the IC50 lay within 501 to 999 nM. The same measure, in the same setting: as for `C=CC(=O)Nc1cc(N2CCOCC2)ccc1Nc1ncc2c(n1)N(C)C(=O)N(c1cc(OC)cc(OC)c1)C2` [Compound I-17], the figure is less than 100 nM. For the compound `C=CC(=O)Nc1cc(N2CCCCC2)ccc1Nc1ncc2c(n1)N(C)C(=O)N(c1cc(OC)cc(OC)c1)C2` [Compound I-31], the half-inhibitory concentration (IC50) was less than 100 nM.

As for `C=CC(=O)N[C@H]1CCCC[C@H]1Nc1ncc2c(n1)N(Cc1cn[nH]c1)C(=O)N(c1c(Cl)c(OC)cc(OC)c1Cl)C2` [Compound I-152], the IC50 was less than 100 nM.

On to `C=CC(=O)N(C)c1ccccc1Nc1ncc2c(n1)N(C)C(=O)N(c1c(Cl)c(OC)cc(OC)c1Cl)C2` [Compound I-29], for which the IC50 was in the range of 101 to 500 nM. For `C=CC(=O)Nc1cc(-c2cnn(C)c2)ccc1Nc1ncc2c(n1)N(C)C(=O)N(c1c(Cl)c(OC)cc(OC)c1Cl)C2` [Compound I-141], the IC50 is less than 100 nM.

The same assay, now with this note: method b: [FGFR4-WT]=2.5 nM (SignalChem), [ATP]=250 uM, [Y10-Sox]=10 uM.
Consider `C=CC(=O)Nc1ccccc1Nc1ncc2c(n1)N(C)C(=O)N(c1c(Cl)c(OC)cc(OC)c1Cl)C2` [Compound I-2], for which the IC50 was less than 100 nM. Consider `C=CC(=O)NCc1ccccc1Nc1ncc2c(n1)N(C)C(=O)N(c1c(Cl)c(OC)cc(OC)c1Cl)C2` [Compound I-181], for which the IC50 is less than 100 nM. As for `C=CC(=O)Nc1cc(C(F)(F)F)ccc1Nc1ncc2c(n1)N(Cc1ccccc1)C(=O)N(c1c(Cl)c(OC)cc(OC)c1Cl)C2` [Compound I-10], the IC50 is more than 1000 nM. Turning to `C=CC(=O)Nc1ccccc1Nc1ncc2c(n1)N(C1CC1)C(=O)N(c1c(Cl)c(OC)cc(OC)c1Cl)C2` [Compound I-23], the IC50 is less than 100 nM. On to `C=CC(=O)Nc1cc(OCCOC)ccc1Nc1ncc2c(n1)N(Cc1ccccc1)C(=O)N(c1cc(OC)cc(OC)c1)C2` [Compound I-14], for which the IC50 is less than 100 nM. Regarding `CCC(=O)Nc1ccccc1Nc1ncc2c(n1)N(C)C(=O)N(c1c(Cl)c(OC)cc(OC)c1Cl)C2` [Compound I-235], the IC50 was 101 to 500 nM. `C=CC(=O)Nc1cc(N2CCN(CC)CC2)ccc1Nc1ncc2c(n1)N(C)C(=O)N(c1cc(OC)cc(OC)c1)C2` [Compound I-15]: the IC50 is less than 100 nM.
